Key:
pancreatic tumor = conditions: dinaciclib combined with MK-2206; cited from earlier work
[1] = patients with advanced solid tumors; cited from earlier work
[2] = test system: SU86.86, ASPC-1, and PANC-1 cells; assay: MTS cell survival assay in pancreatic cancer cells transfected with control or HEATR1 siRNA/shRNA; type: cell-based, human; conditions: HEATR1 siRNA or shRNA vs control
Method: FIG. 1. […] (A) Cells were transfected with indicated siRNA and treated with Gemcitabine. Cell survival was determined. […] (C) SU86.86 cells were transfected with indicated siRNA and treated. Cell survival was determined.
(A) PANC-1 and ASPC-1 cells stably expressing control or HEATR1 shRNA treated with gemcitabine. Cell survival was determined as described in FIG. 1A. The data presented are mean±SD for six independent experiments. […] (B) PANC-1 and ASPC-1 cells were transfected with control or HEATR1 siRNA and then treated with the indicated drugs. Cell survival was determined as described in A. The data presented are mean±SD for six independent experiments.
Human pancreatic cancer cell lines SU86.86, ASPC-1, and PANC-1 were purchased from ATCC in 2014. The identities of these cell lines were confirmed by the medical genome facility at Mayo Clinic Center using short tandem repeat profiling upon receipt. The cell lines were maintained in RPMI 1640 with 10% FBS. HEATR1 cDNA was purchased from Thermo Scientific and full length and mutants were subcloned into pIRES-EGFP. PP2A-Aα, B55α, B56β, Cα were purchased from addgene and subcloned into HA-pcmv and pGex4T-1. HEATR1 siRNA and shRNA were from Dharmacon and Sigma, respectively.
Gemcitabine was from Eli Lilly (Indianapolis, Ind.). Paclitaxel, SN-38, mitomycin c, oxaliplatin and etopside were from Sigma-Aldrich (St. Louis, Mo.). […] Ctrl (Control) or HEATR1 siRNA or shRNA were transfected, and the growth-inhibitory effect was performed as described previously (21). In one embodiment, a MTS assay may be performed by a MTS Cell Proliferation Assay Kit (Colorimetric) (197010); a colorimetric sensitive quantification of viable cells in proliferation and cytotoxicity assays. The assay is based on the reduction of MTS tetrazolium compound by viable cells to generate a colored formazan product that is soluble in cell culture media.

[3] = test system: Akt phospho-Thr308 and phospho-Ser473; conditions: in vivo, both sensitive and resistant tumors; cited from earlier work
Akt [4] = conditions: cited from earlier work
SU86.86 cells = assay: Apoptosis (cleaved PARP1 western blot) in cells expressing control or HEATR1 shRNA; type: cell-based, human; conditions: control cells vs HEATR1 shRNA cells; 10 μM, 48 hours
Method: (A) SU86.86 cells stably expressing control or HEATR1 shRNA treated with gemcitabine (10 μM). Cell lysate were collect at 48 hours and western blotting was performed with indicated antibodies. (B) Cells stably expressing control or HEATR1 shRNA were seeded in each well (5×10^4/well) and cell numbers were counted every 24 hour. Data are represented as the mean±SD of four independent experiments. We prepared cell lysates, performed immunoprecipitation, and immunoblotting as previously described. In brief, cells were lysed with NETN buffer (20 mM Tris-HCl, pH 8.0, 100 mM NaCl, 1 mM EDTA, 0.5% Nonidet P-40) containing 50 mM b-glycerophosphate, 10 mM NaF, and […] each of pepstatin A and aprotinin. Whole cell lysates were pulse-sonicated and obtained by centrifugation. Whole cell lysates were incubated with 2 μg of antibody and protein A or protein G Sepharose beads (Amersham Biosciences) for 2 hr or overnight at 4° C. The immunocomplexes were then washed with NETN buffer for three times and separated by SDS-PAGE. Immunoblotting was performed following standard procedures. GST fusion proteins were bound to glutathione-Sepharose overnight at 4° C. The beads were washed with PBS four times and incubated with cell lysates for 1 h at 4° C. After washing with NETN for three times, the bound proteins were separated by SDS-PAGE and immunoblotted with indicated antibodies.

PANC-1 xenograft tumors = assay: Tumor xenograft study, PANC-1 cells stably expressing Ctrl or HEATR1 shRNA; type: in vivo, mouse; conditions: Gemcitabine 50 mg/kg i.p. every 3 days; HEATR1 shRNA vs Ctrl
Method: Xenograft tumors were dissected and tumor weights were measured after mice were sacrificed (C). ANOVA analysis was performed (Mann-Whitney test) +P<0.05, ++P<0.01 (Ctrl vs KD). […] Representative photographs of indicated xenograft tumors were shown in (E). Female athymic nu/nu mice were obtained from the National Cancer Institute. Experiments were performed under the approval of the Institutional Animal Care and Use Committee at Mayo Clinic. PANC-1 cells stably expressing Ctrl and HEATR1 shRNA were injected subcutaneously in mouse flanks (10^6 cells/mouse flank). Tumor volumes were measured every three days. […] After sacrificing the mice, tumors were surgically removed and weighted.

[5] = test system: Akt phosphorylation at Thr308; assay: Western blot of Akt phosphorylation after serum starvation and serum addition; type: cell-based, human; conditions: SU86.86 cells, pretreated 5 nM
Method: (A) Intracellular co-localization of HEATR1 and AKT were observed by using confocal microscopy in Su86.86, PANC-1 and ASPC-1 cells. (B) Cell lysates were subjected to immunoprecipitation with control IgG or anti-HEATR1 antibodies. The immunoprecipitates were then blotted with indicated antibodies. (C) Cells were transfected with control or HEATR1 siRNA, and the interaction between Akt and PDK1 was examined. (D) SU86.86 Cells transfected with control or HEATR1 siRNA were serum starved for 16 hours (0.1% serum), pretreated with DMSO or okadaic acid (5 nM) and then serum was added. Whole-cell lysates were harvested at indicated time and western blotting was performed with indicated antibodies.
We prepared cell lysates, performed immunoprecipitation, and immunoblotting as previously described. In brief, cells were lysed with NETN buffer (20 mM Tris-HCl, pH 8.0, 100 mM NaCl, 1 mM EDTA, 0.5% Nonidet P-40) containing 50 mM b-glycerophosphate, 10 mM NaF, and […] each of pepstatin A and aprotinin. Whole cell lysates were pulse-sonicated and obtained by centrifugation. Whole cell lysates were incubated with 2 μg of antibody and protein A or protein G Sepharose beads (Amersham Biosciences) for 2 hr or overnight at 4° C. The immunocomplexes were then washed with NETN buffer for three times and separated by SDS-PAGE. Immunoblotting was performed following standard procedures. […]

Akt [6] = conditions: cited from earlier work; remark: listed apart in the source

Compound: NC1(c2ccc(-c3nc4ccn5c(=O)[nH]nc5c4cc3-c3ccccc3)cc2)CCC1 [MK-2206]
- Pancreatic tumor growth and metastases (pancreatic tumor): dramatically block
- Tolerability [1]: well tolerated

Compound: CO[C@@]12[C@H](COC(N)=O)C3=C(C(=O)C(C)=C(N)C3=O)N1C[C@@H]1N[C@@H]12 [mitomycin c]
- Cell survival / resistance to drug in cells with HEATR1 knockdown versus control [2]: significantly resistant

Compound: CCCCCCCCCCCCc1ccc(S(=O)(=O)Nc2nncs2)cc1 [PHT-427]
- Akt phospho-Thr308 and phospho-Ser473 in tumors [3]: decreased
- Akt activity in resistant cancer cells (Akt [4]): increase in Akt activity

Compound: COc1cc([C@@H]2c3cc4c(cc3[C@@H](O[C@@H]3O[C@@H]5CO[C@@H](C)O[C@H]5[C@H](O)[C@H]3O)[C@H]3COC(=O)[C@H]23)OCO4)cc(OC)c1O [etopside]
- Cell survival / resistance to drug in cells with HEATR1 knockdown versus control [2]: significantly resistant

Compound: Nc1ccn([C@@H]2O[C@H](CO)[C@@H](O)C2(F)F)c(=O)n1 [Gemcitabine]
- Cell survival / resistance to drug in cells with HEATR1 knockdown versus control [2]: increased resistance
- Apoptosis activity induced by drug (SU86.86 cells): stronger apoptosis activity in control cells
- Tumor response to drug in xenografts with HEATR1 downregulation (PANC-1 xenograft tumors): resistance to Gemcitabine

Compound: CC(=O)O[C@H]1C(=O)[C@@]2(C)[C@H]([C@H](OC(=O)c3ccccc3)[C@]3(O)C[C@H](OC(=O)[C@H](O)[C@@H](NC(=O)c4ccccc4)c4ccccc4)C(C)=C1C3(C)C)[C@]1(OC(C)=O)CO[C@@H]1C[C@@H]2O [paclitaxel]
- Cell survival / resistance to drug in cells with HEATR1 knockdown versus control [2]: significantly resistant

Compound: O=C1[O][Pt]2([NH][C@@H]3CCCC[C@H]3[NH]2)[O]C1=O [oxaliplatin]
- Cell survival / resistance to drug in cells with HEATR1 knockdown versus control [2]: significantly resistant

Compound: C=C1[C@@H](O)[C@@H]2O[C@]3(CC[C@H](/C=C/[C@@H](C)[C@@H]4CC(C)=C[C@@]5(O[C@H](C[C@@](C)(O)C(=O)O)CC[C@H]5O)O4)O3)CC[C@H]2O[C@@H]1[C@@H](O)C[C@H](C)[C@H]1O[C@@]2(CCCCO2)CC[C@H]1C [okadaic acid]
- Akt phosphorylation at Thr308 [5]: significantly increased

Compound: S=C=NCc1ccccc1 [BITC, Benzyl isothiocyanate]
- Phosphorylation of Akt at both Ser-473 and Ser-308 (Akt [6]): suppresses

Compound: CCc1c2c(nc3ccc(O)cc13)-c1cc3c(c(=O)n1C2)COC(=O)[C@]3(O)CC [SN-38]
- Cell survival / resistance to drug in cells with HEATR1 knockdown versus control [2]: significantly resistant

Compound: CC[C@@]1(O)C(=O)OCc2c1cc1n(c2=O)Cc2cc3ccccc3nc2-1 [Camptothecin]
- Cell survival / resistance to drug in cells with HEATR1 knockdown versus control [2]: significantly resistant

— patent publication US11371099B2, “HEATR1 as a marker for chemoresistance” (MAYO FOUNDATION FOR MEDICAL EDUCATION AND RESEARCH, priority 2015, dated 2022)
